Laboratory results: patent publication US20050118188A1, “Pharmaceutical composition for immunization against AIDS” (Aventis Pasteur, S.A., priority 2000, published 2005)

Test system: female BALB/c By J Ico mice
Conditions: mouse, in vivo

CC(C)CCC[C@@H](C)[C@H]1CC[C@H]2[C@@H]3CC=C4C[C@@H](OC(=O)NCCN(C)C)CC[C@]4(C)[C@H]3CC[C@]12C.Cl [DCchol, DC-Chol hydrochloride]
Adjuvant effect on local IgA responses (in words): marked adjuvant effect
Adjuvant effect on serum anti-gp160 antibodies (in words): good adjuvant
Factor by which IgA normalized specific activities (NSA) were multiplied compared to gp160 alone: 12
